The test system of the assay is HEK293 cells. The assay can be described thus: HEK293 VLCFA-LPC IC50 determination (13C-labeled C26:0 LPC by UHPLC/MS). The format is cell-based, human. As to conditions: Homo sapiens, HEK293, HEK293 cells; average of one or more replicates; read-out: Average HEK293 IC50. In outline: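 Suspension HEK293 cells (final 0.5 million/mL after mixing with equal volume) incubated 48 hours with compound plus 13C-acetate (1.0 mg/mL in added media), shaking at 37° C. Lipids extracted with hexane/isopropanol or methanol, C13:0 LPC standard. UHPLC/MS of 13C-labeled C26:0 LPC (638.500/104.100 m/z); IC50 by four-parameter fit.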

As to `O=C(Cc1ccccc1)Nc1ccn(-c2cnccn2)n1` [Compound 218, 2-phenyl-N-(1-pyrazin-2-ylpyrazol-3-yl)acetamide], the IC50 is over 2000 nM.
Regarding `O=C(Cc1cnccn1)Nc1ccn(-c2ccccc2)n1` [Compound 219, N-(1-phenylpyrazol-3-yl)-2-pyrazin-2-yl-acetamide], the IC50 is over 5000 nM.
As for `O=C(Cc1ncccn1)Nc1ccn(-c2ccccc2)n1` [Compound 220, N-(1-phenylpyrazol-3-yl)-2-pyrimidin-2-yl-acetamide], the figure is over 2000 nM.
Turning to `O=C(Cc1ncccn1)Nc1ccn(-c2ccnc(F)c2)n1` [Compound 221, N-[1-(2-fluoro-4-pyridyl)pyrazol-3-yl]-2-pyrimidin-2-yl-acetamide], the IC50 was over 5000 nM.
Turning to `O=C(Nc1ccn(-c2ccnc(F)c2)n1)C1(c2cccnc2)CC1` [Compound 222, N-[1-(2-fluoro-4-pyridyl)pyrazol-3-yl]-1-(3-pyridyl)cyclopropanecarboxamide], the IC50 is 2000 nM.
In the case of `O=C(Nc1ccn(-c2ccnc(F)c2)n1)C1(c2ccccn2)CC1` [Compound 223, N-[1-(2-fluoro-4-pyridyl)pyrazol-3-yl]-1-(2-pyridyl)cyclopropanecarboxamide], the IC50 turned out to be 70 nM.
With `O=C(Nc1ccn(-c2ccccc2)n1)C1(c2cccnc2)CC1` [Compound 224, N-(1-phenylpyrazol-3-yl)-1-(3-pyridyl)cyclopropanecarboxamide], the IC50 is 1400 nM.
Regarding `O=C(Nc1ccn(-c2ccccc2)n1)C1(c2ccccn2)CC1` [Compound 225, N-(1-phenylpyrazol-3-yl)-1-(2-pyridyl)cyclopropanecarboxamide], the IC50 was determined as 75 nM.
`N#Cc1ccc(C2(C(=O)Nc3ccn(-c4ccnc(F)c4)n3)CC2)cc1` [Compound 226, 1-(4-cyanophenyl)-N-[1-(2-fluoro-4-pyridyl)pyrazol-3-yl]cyclopropanecarboxamide]: the IC50 came out at 110 nM.
For the compound `N#Cc1ccc(C2(C(=O)Nc3ccn(-c4ccccc4)n3)CC2)cc1` [Compound 227, 1-(4-cyanophenyl)-N-(1-phenylpyrazol-3-yl)cyclopropanecarboxamide], the IC50 came out at 290 nM.
Turning to `Cn1ccc(-n2ccc(NC(=O)Cc3ccccc3)n2)n1` [Compound 228, N-[1-(1-methylpyrazol-3-yl)pyrazol-3-yl]-2-phenyl-acetamide], the concentration for half-maximal inhibition (IC50) was over 5000 nM.
As for `Cn1ccc(-n2ccc(NC(=O)C3(c4ccccc4F)CC3)n2)n1` [Compound 229, 1-(2-fluorophenyl)-N-[1-(1-methylpyrazol-3-yl)pyrazol-3-yl]cyclopropanecarboxamide], the figure is 3500 nM.
For `Cn1ccc(-n2ccc(NC(=O)Cc3ccccc3F)n2)n1` [Compound 230, 2-(2-fluorophenyl)-N-[1-(1-methylpyrazol-3-yl)pyrazol-3-yl]acetamide], the IC50 is over 5000 nM.
For `Cn1ccc(-n2ccc(NC(=O)C3(c4ccccc4)CC3)n2)n1` [Compound 231, N-[1-(1-methylpyrazol-3-yl)pyrazol-3-yl]-1-phenyl-cyclopropanecarboxamide], the concentration for half-maximal inhibition (IC50) is over 5000 nM.
As for `O=C(Nc1ccn(-c2cnccn2)n1)C1(c2ccccc2)CC1` [Compound 233, 1-phenyl-N-(1-pyrazin-2-ylpyrazol-3-yl)cyclopropanecarboxamide], the figure is 1500 nM; as for `O=C(Nc1ccn(-c2cccnc2)n1)C1(c2ccccc2)CC1` [Compound 234, 1-phenyl-N-[1-(3-pyridyl)pyrazol-3-yl]cyclopropanecarboxamide], 29 nM; as for `O=C(Cc1ccccc1F)Nc1ccn(-c2cccnc2)n1` [Compound 235, 2-(2-fluorophenyl)-N-[1-(3-pyridyl)pyrazol-3-yl]acetamide], 320 nM.
In the case of `O=C(Cc1cncnc1)Nc1ccn(-c2ccnc(F)c2)n1` [Compound 236, N-[1-(2-fluoro-4-pyridyl)pyrazol-3-yl]-2-pyrimidin-5-yl-acetamide], the IC50 is over 5000 nM.
Regarding `O=C(Nc1ccn(-c2ccnc(F)c2)n1)C1(c2ccccc2)CC1` [Compound 237, N-[1-(2-fluoro-4-pyridyl)pyrazol-3-yl]-1-phenyl-cyclopropanecarboxamide], the IC50 was found to be 22 nM.
As for `O=C(Nc1ccn(-c2ccnc(F)c2)n1)C1(c2ccc(I)cc2)CC1` [Compound 238, N-[1-(2-fluoro-4-pyridyl)pyrazol-3-yl]-1-(4-iodophenyl)cyclopropanecarboxamide], the IC50 turned out to be 120 nM.
As for `O=C(Nc1ccn(-c2cccnn2)n1)C1(c2ccccc2F)CC1` [Compound 239, 1-(2-fluorophenyl)-N-(1-pyridazin-3-ylpyrazol-3-yl)cyclopropanecarboxamide], the figure is 300 nM.
As to `O=C(Nc1ccn(-c2ncccn2)n1)C1(c2ccccc2F)CC1` [Compound 240, 1-(2-fluorophenyl)-N-(1-pyrimidin-2-ylpyrazol-3-yl)cyclopropanecarboxamide], the IC50 worked out at 4400 nM.
Consider `Cc1ncc(-n2ccc(NC(=O)C3(c4ccccc4F)CC3)n2)cn1` [Compound 241, 1-(2-fluorophenyl)-N-[1-(2-methylpyrimidin-5-yl)pyrazol-3-yl]cyclopropanecarboxamide], for which the IC50 is over 5000 nM.
In the case of `N#Cc1ccccc1C1(C(=O)Nc2ccn(-c3ccccc3)n2)CC1` [Compound 242, 1-(2-cyanophenyl)-N-(1-phenylpyrazol-3-yl)cyclopropanecarboxamide], the IC50 was over 2000 nM.
For the compound `N#Cc1cccc(C2(C(=O)Nc3ccn(-c4ccnc(F)c4)n3)CC2)c1` [Compound 243, 1-(3-cyanophenyl)-N-[1-(2-fluoro-4-pyridyl)pyrazol-3-yl]cyclopropanecarboxamide], the IC50 amounted to 310 nM.
As for `N#Cc1cccc(C2(C(=O)Nc3ccn(-c4ccccc4)n3)CC2)c1` [Compound 244, 1-(3-cyanophenyl)-N-(1-phenylpyrazol-3-yl)cyclopropanecarboxamide], the figure is 280 nM; as for `Cc1cccc(C2(C(=O)Nc3ccn(-c4ccnc(F)c4)n3)CC2)c1` [Compound 245, N-[1-(2-fluoro-4-pyridyl)pyrazol-3-yl]-1-(m-tolyl)cyclopropanecarboxamide], 260 nM.
For the compound `CCOc1ccc(C2(C(=O)Nc3ccn(-c4ccnc(F)c4)n3)CC2)cc1` [Compound 246, 1-(4-ethoxyphenyl)-N-[1-(2-fluoro-4-pyridyl)pyrazol-3-yl]cyclopropanecarboxamide], the IC50 worked out at 2800 nM.
As to `N#Cc1ccccc1C1(C(=O)Nc2ccn(-c3ccnc(F)c3)n2)CC1` [Compound 247, 1-(2-cyanophenyl)-N-[1-(2-fluoro-4-pyridyl)pyrazol-3-yl]cyclopropanecarboxamide], the IC50 stood at 2500 nM.
As for `Cc1cc(C)cc(C2(C(=O)Nc3ccn(-c4ccnc(F)c4)n3)CC2)c1` [Compound 248, 1-(3,5-dimethylphenyl)-N-[1-(2-fIuoro-4-pyridyl)pyrazol-3-yl]cyclopropanecarboxamide], the figure is over 5000 nM.
For `COc1ccc(C2(C(=O)Nc3ccn(-c4ccnc(F)c4)n3)CC2)cc1` [Compound 249, N-[1-(2-fluoro-4-pyridyl)pyrazol-3-yl]-1-(4-methoxyphenyl)cyclopropanecarboxamide], the IC50 is 640 nM.
For `COc1cccc(C2(C(=O)Nc3ccn(-c4ccnc(F)c4)n3)CC2)c1` [Compound 250, N-[1-(2-fluoro-4-pyridyl)pyrazol-3-yl]-1-(3-methoxyphenyl)cyclopropanecarboxamide], the 50% inhibitory concentration (IC50) came out at 170 nM.
As for `O=C(Nc1ccn(-c2ccnc(F)c2)n1)C1(c2ccccc2Cl)CC1` [Compound 251, 1-(2-chlorophenyl)-N-[1-(2-fluoro-4-pyridyl)pyrazol-3-yl]cyclopropanecarboxamide], the figure is 110 nM.
For the compound `Cc1ccccc1C1(C(=O)Nc2ccn(-c3ccnc(F)c3)n2)CC1` [Compound 252, N-[1-(2-fluoro-4-pyridyl)pyrazol-3-yl]-1-(o-tolyl)cyclopropanecarboxamide], the IC50 was determined as 400 nM.
In the case of `O=C(Nc1ccn(-c2ccnc(F)c2)n1)C1(c2ccc(Cl)cc2Cl)CC1` [Compound 253, 1-(2,4-dichlorophenyl)-N-[1-(2-fluoro-4-pyridyl)pyrazol-3-yl]cyclopropanecarboxamide], the IC50 was 120 nM.
With `O=C(Nc1ccn(-c2ccnc(F)c2)n1)C1(c2cccc(F)c2)CC1` [Compound 254, 1-(3-fluorophenyl)-N-[1-(2-fluoro-4-pyridyl)pyrazol-3-yl]cyclopropanecarboxamide], the IC50 stood at 190 nM.
As to `O=C(Nc1ccn(-c2ccnc(F)c2)n1)C1(c2ccc(F)cc2)CC1` [Compound 255, 1-(4-fluorophenyl)-N-[1-(2-fluoro-4-pyridyl)pyrazol-3-yl]cyclopropanecarboxamide], the IC50 was found to be 100 nM.
For the compound `O=C(Nc1ccn(-c2ccnc(F)c2)n1)C1(c2cccc(Cl)c2)CC1` [Compound 256, 1-(3-chlorophenyl)-N-[1-(2-fluoro-4-pyridyl)pyrazol-3-yl]cyclopropanecarboxamide], the IC50 turned out to be 300 nM.
As for `O=C(Nc1ccn(-c2ccnc(F)c2)n1)C1(c2ccc(Cl)cc2)CC1` [Compound 257, 1-(4-chlorophenyl)-N-[1-(2-fluoro-4-pyridyl)pyrazol-3-yl]cyclopropanecarboxamide], the figure is 340 nM.
The figure for `[2H]c1nc(C)nc([2H])c1-n1ccc(NC(=O)C2(c3ccccc3F)CC2)n1` [Compound 258, N-[1-(4,6-dideuterio-2-methyl-pyrimidin-5-yl)pyrazol-3-yl]-1-(2-fluorophenyl)cyclopropanecarboxamide] is over 5000 nM; for `COc1cc(-n2ccc(NC(=O)C3(c4ccccc4F)CC3)n2)ccn1` [Compound 259, 1-(2-fluorophenyl)-N-(1-(2-methoxypyridin-4-yl)-1H-pyrazol-3-yl)cyclopropane-1-carboxamide] it is 51 nM.
Turning to `O=C(Nc1ccn(-c2ccnc(F)c2)n1)C1(c2cc(F)ccc2F)CC1` [Compound 260, 1-(2,5-difluorophenyl)-N-[1-(2-fluoro-4-pyridyl)pyrazol-3-yl]cyclopropanecarboxamide], the IC50 stood at 170 nM.

One may read the IC50 as the concentration needed to halve the response being measured.
